Usually EC50 stands for the concentration giving half of the maximal effect.

For 30 molecules, EC50 results are on record in patent publication US8729091B2, “4-phenoxy-nicotinamide or 4-phenoxy-pyrimidine-5-carboxamide compounds” (Hoffmann-La Roche Inc., priority 2010, dated 2014).

For the experiment, the target named is T1, human GPBAR1 receptor (Homo sapiens, UniProt Q8TDU6).
T1 construct: expressed in transfected cells
T1 sequence (Q8TDU6 1-330): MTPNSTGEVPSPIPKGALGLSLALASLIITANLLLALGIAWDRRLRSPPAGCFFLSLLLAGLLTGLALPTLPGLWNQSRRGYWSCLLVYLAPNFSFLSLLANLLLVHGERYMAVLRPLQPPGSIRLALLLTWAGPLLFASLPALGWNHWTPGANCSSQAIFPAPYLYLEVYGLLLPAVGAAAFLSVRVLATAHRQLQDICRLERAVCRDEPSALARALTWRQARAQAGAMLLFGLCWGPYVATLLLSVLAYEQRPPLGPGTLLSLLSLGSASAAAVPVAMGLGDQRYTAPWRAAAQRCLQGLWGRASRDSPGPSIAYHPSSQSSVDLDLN
In words: functional cAMP assay in CHO-dhfr(minus) cells expressing human GPBAR1 receptors. The note with it: cAMP increase (TR-FRET) in CHO-dhfr(minus) cells expressing human GPBAR1; compounds incubated 30 min at 30° C. In kind it is cell-based. On the procedure:
The final clone was verified by DNA sequence analysis. The plasmid was transfected into CHO cells deficient in dihydrofolate reductase activity (CHO-dhfr−) using Lipofectamine plus (Invitrogen). Clones were isolated in limited dilution conditions and identified by activities in the cAMP assay using lithocholic acid as agonist.
The growth medium was exchanged with Krebs Ringer Bicarbonate buffer with 1 mM IBMX and incubated at 30° C. for 30 min. Compounds were added to a final assay volume of 100 μl and incubated for 30 min at 30° C. […] The time-resolved energy transfer is measured by a TRF reader (Evotec Technologies GmbH, Hamburg Germany), equipped with a ND:YAG laser as excitation source.
EC50 values were determined using Activity Base analysis (ID Business Solution, Limited). […] Specificity for GPBAR1 was tested in non-transfected CHO cells in the same assay as above.
For `O=C(O)CNC(=O)c1cc(Cl)c(Oc2ccncc2C(=O)N2CCN(C3CC3)c3ccccc32)cc1Cl` [Example 30, {2,5-Dichloro-4-[3-(4-cyclopropyl-3,4-dihydro-2H-quinoxaline-1-carbonyl)-pyridin-4-yloxy]-benzoylamino}-acetic acid], the EC50 was found to be 400 nM.

`NC(=O)c1cc(Cl)c(Oc2ccncc2C(=O)N2CCN(C3CC3)c3ccccc32)cc1Cl` [Example 52, 2,5-Dichloro-4-[3-(4-cyclopropyl-3,4-dihydro-2H-quinoxaline-1-carbonyl)-pyridin-4-yloxy]-benzamide]: the EC50 was determined as 10 nM.

For `O=C(c1cncnc1Oc1cc(Cl)ccc1Cl)N1CCNc2ccccc21` [Example 78, [4-(2,5-Dichloro-phenoxy)-pyrimidin-5-yl]-(3,4-dihydro-2H-quinoxalin-1-yl)-methanone], the midpoint of the response, the EC50, lay at 300 nM.

Regarding `CN(C)c1ccc(Cl)cc1N(C)C(=O)c1cnccc1Oc1cc(Cl)ccc1Cl` [Example 20, N-(5-Chloro-2-dimethylamino-phenyl)-4-(2,5-dichloro-phenoxy)-N-methyl-nicotinamide], the response was half-maximal at 400 nM (EC50).

Consider `O=C(NC(CO)CO)c1cc(Cl)c(Oc2ccncc2C(=O)N2CCN(C3CC3)c3ccccc32)cc1Cl` [Example 51, 2,5-Dichloro-4-[3-(4-cyclopropyl-3,4-dihydro-2H-quinoxaline-1-carbonyl)-pyridin-4-yloxy]-N-(2-hydroxy-1-hydroxymethyl-ethyl)-benzamide], for which the EC50 came to 300 nM.

Molecule `Cc1cc(Oc2cc(Cl)ccc2Cl)c(C(=O)N2CCN(C3CC3)c3ccccc32)c(Cl)n1` [Example 73, [2-Chloro-4-(2,5-dichloro-phenoxy)-6-methyl-pyridin-3-yl]-(4-cyclopropyl-3,4-dihydro-2H-quinoxalin-1-yl)-methanone] displayed an EC50 of 50 nM.

Consider `O=C(NCCCS(=O)(=O)O)c1cc(Cl)c(Oc2ccncc2C(=O)N2CCN(C3CC3)c3ccccc32)cc1Cl` [Example 37, 3-{2,5-Dichloro-4-[3-(4-cyclopropyl-3,4-dihydro-2H-quinoxaline-1-carbonyl)-pyridin-4-yloxy]-benzoylamino}-propane-1-sulfonic acid], for which the EC50 is 900 nM.

On to `COC(=O)CNC(=O)c1cc(Cl)c(Oc2ccncc2C(=O)N2CCN(C3CC3)c3ccccc32)cc1Cl` [Example 29, {2,5-Dichloro-4-[3-(4-cyclopropyl-3,4-dihydro-2H-quinoxaline-1-carbonyl)-pyridin-4-yloxy]-benzoylamino}-acetic acid methyl ester], for which the EC50 was 100 nM.

Regarding `CCOC(=O)COc1cc(Cl)c(Oc2ccncc2C(=O)N2CCN(C3CC3)c3ccccc32)cc1Cl` [Example 58, {2,5-Dichloro-4-[3-(4-cyclopropyl-3,4-dihydro-2H-quinoxaline-1-carbonyl)-pyridin-4-yloxy]-phenoxy}-acetic acid ethyl ester], a half-maximal effect (EC50) was put at 30 nM.

Consider `CCOC(=O)c1sc(NC(=O)c2cc(Cl)c(Oc3ccncc3C(=O)N3CCN(C4CC4)c4ccccc43)cc2Cl)nc1C` [Example 45, 2-{2,5-Dichloro-4-[3-(4-cyclopropyl-3,4-dihydro-2H-quinoxaline-1-carbonyl)-pyridin-4-yloxy]-benzoylamino}-4-methyl-thiazole-5-carboxylic acid ethyl ester], for which a half-maximal effect (EC50) was put at 600 nM.

The molecule `NC(=O)CCNC(=O)c1cc(Cl)c(Oc2ccncc2C(=O)N2CCN(C3CC3)c3ccccc32)cc1Cl` [Example 53, N-(2-Carbamoyl-ethyl)-2,5-dichloro-4-[3-(4-cyclopropyl-3,4-dihydro-2H-quinoxaline-1-carbonyl)-pyridin-4-yloxy]-benzamide] had an EC50 of 100 nM.

Regarding `O=C(Nc1cccc2c1NCCC2)c1cnccc1Oc1cc(Cl)ccc1Cl` [Example 22, 4-(2,5-Dichloro-phenoxy)-N-(1,2,3,4-tetrahydro-quinolin-8-yl)-nicotinamide], the EC50 was 900 nM.

As to `CCOC(=O)C(C)(C)Oc1cc(Cl)c(Oc2ccncc2C(=O)N2CCN(C3CC3)c3ccccc32)cc1Cl` [Example 60, 2-{2,5-Dichloro-4-[3-(4-cyclopropyl-3,4-dihydro-2H-quinoxaline-1-carbonyl)-pyridin-4-yloxy]-phenoxy}-2-methyl-propionic acid ethyl ester], the EC50 was 200 nM.

On to `O=C(c1cncnc1Oc1cc(Cl)ccc1Cl)N1CCCc2cc(F)ccc21` [Example 77, [4-(2,5-Dichloro-phenoxy)-pyrimidin-5-yl]-(6-fluoro-3,4-dihydro-2H-quinolin-1-yl)-methanone], for which the EC50 stood at 400 nM.

In turn, `CN(C(=O)c1cnccc1Oc1cc(Cl)ccc1Cl)c1cc(C(F)(F)F)cc(C(F)(F)F)c1` [Example 18, N-(3,5-Bis-trifluoromethyl-phenyl)-4-(2,5-dichloro-phenoxy)-N-methyl-nicotinamide] came in with an EC50 of 1400 nM.

In turn, `CN(C(=O)c1cnccc1Oc1cc(Cl)ccc1Cl)c1cccc2c1NCCC2` [Example 24, 4-(2,5-Dichloro-phenoxy)-N-methyl-N-(1,2,3,4-tetrahydro-quinolin-8-yl)-nicotinamide] gave an EC50 of 100 nM.

Consider `CS(=O)(=O)N1CCN(C(=O)c2cnccc2Oc2cc(Cl)ccc2Cl)c2ccccc21` [Example 7, [4-(2,5-Dichloro-phenoxy)-pyridin-3-yl]-(4-methanesulfonyl-3,4-dihydro-2H-quinoxalin-1-yl)-methanone], for which it took 300 nM to reach a half-maximal effect (EC50).

In the case of `O=C(NCCS(=O)(=O)O)c1cc(Cl)c(Oc2ccncc2C(=O)N2CCN(C3CC3)c3ccccc32)cc1Cl` [Example 35, 2-{2,5-Dichloro-4-[3-(4-cyclopropyl-3,4-dihydro-2H-quinoxaline-1-carbonyl)-pyridin-4-yloxy]-benzoylamino}-ethanesulfonic acid], it took 100 nM to reach a half-maximal effect (EC50).

Consider `Cc1ccccc1N(C)C(=O)c1cnccc1Oc1cc(Cl)ccc1Cl` [Example 13, 4-(2,5-Dichloro-phenoxy)-N-methyl-N-o-tolyl-nicotinamide], for which the response was half-maximal at 200 nM (EC50).

For `COc1ccc(F)cc1N(C)C(=O)c1cnccc1Oc1cc(Cl)ccc1Cl` [Example 12, 4-(2,5-Dichloro-phenoxy)-N-(5-fluoro-2-methoxy-phenyl)-N-methyl-nicotinamide], the EC50 was found to be 100 nM.

`O=C(c1cnccc1Oc1cc(Cl)ccc1Cl)N1CCN(C2CC2)c2cc(Cl)c(F)cc21` [Example 9, (6-Chloro-4-cyclopropyl-7-fluoro-3,4-dihydro-2H-quinoxalin-1-yl)-[4-(2,5-dichloro-phenoxy)-pyridin-3-yl]-methanone] came in with an EC50 of 50 nM.

For `COC(=O)c1cc(NC(=O)c2cc(Cl)c(Oc3ccncc3C(=O)N3CCN(C4CC4)c4ccccc43)cc2Cl)cn1C` [Example 41, 4-{2,5-Dichloro-4-[3-(4-cyclopropyl-3,4-dihydro-2H-quinoxaline-1-carbonyl)-pyridin-4-yloxy]-benzoylamino}-1-methyl-1H-pyrrole-2-carboxylic acid methyl ester], the EC50 was 100 nM.

For the molecule `O=C(c1cnc(Cl)cc1Oc1cc(Cl)ccc1Cl)N1CCCc2ccccc21` [Example 74, [6-Chloro-4-(2,5-dichloro-phenoxy)-pyridin-3-yl]-(3,4-dihydro-2H-quinolin-1-yl)-methanone], the EC50 was 22 nM.

For the molecule `Cc1cc(Oc2cc(Cl)c(C(=O)NCc3nnn[nH]3)cc2Cl)c(C(=O)N2CCN(C3CC3)c3ccccc32)cn1` [Example 72, 2,5-Dichloro-4-[5-(4-cyclopropyl-3,4-dihydro-2H-quinoxaline-1-carbonyl)-2-methyl-pyridin-4-yloxy]-N-(1H-tetrazol-5-ylmethyl)-benzamide], the EC50 was determined as 400 nM.

Take `CN1CCN(C(=O)c2cnccc2Oc2cc(Cl)ccc2Cl)c2ccccc21` [Example 4, [4-(2,5-Dichloro-phenoxy)-pyridin-3-yl]-(4-methyl-3,4-dihydro-2H-quinoxalin-1-yl)-methanone]: the midpoint of the response, the EC50, lay at 3 nM.

The molecule `O=C(NCCO)c1cc(Cl)c(Oc2ccncc2C(=O)N2CCN(C3CC3)c3ccccc32)cc1Cl` [Example 49, 2,5-Dichloro-4-[3-(4-cyclopropyl-3,4-dihydro-2H-quinoxaline-1-carbonyl)-pyridin-4-yloxy]-N-(2-hydroxy-ethyl)-benzamide] returned an EC50 of 40 nM.

In the case of `CN(C)c1ncccc1N(C)C(=O)c1cnccc1Oc1cc(Cl)ccc1Cl` [Example 23, 4-(2,5-Dichloro-phenoxy)-N-(2-dimethylamino-pyridin-3-yl)-N-methyl-nicotinamide], the EC50 turned out to be 200 nM.

In the case of `COc1ncccc1N(C)C(=O)c1cnccc1Oc1cc(Cl)ccc1Cl` [Example 15, 4-(2,5-Dichloro-phenoxy)-N-(2-methoxy-pyridin-3-yl)-N-methyl-nicotinamide], it took 100 nM to reach a half-maximal effect (EC50).

In turn, `COC(=O)c1cc(Cl)c(Oc2cc(C)ncc2C(=O)N2CCN(C3CC3)c3ccccc32)cc1Cl` [Example 65, 2,5-Dichloro-4-[5-(4-cyclopropyl-3,4-dihydro-2H-quinoxaline-1-carbonyl)-2-methyl-pyridin-4-yloxy]-benzoic acid methyl ester] yielded an EC50 of 20 nM.

In the case of `O=C(c1cnccc1Oc1cc(Cl)ccc1Cl)N1CCNc2ccccc21` [Example 3, [4-(2,5-Dichloro-phenoxy)-pyridin-3-yl]-(3,4-dihydro-2H-quinoxalin-1-yl)-methanone], the EC50 was determined as 100 nM.
